# Laboratory results taken from patent US12404276B2, “Substituted pyrrolo[3,4-c]pyrazoles for treating gastric acid-related diseases” (SHANGHAI MEDICILON INC., priority 2019, dated 2025).
# Target: T1, H+/K+ ATPase (Oryctolagus cuniculus, UniProt P27112)
# T1 construct: The stomach tissue of the rabbit was separated; from tissue; host or cells: rabbit stomach fundus mucosa, microsomal/Ficoll membrane fraction
# Assay: Determination of compounds' inhibition of H+/K+ ATPase enzyme activity (malachite green, OD 620 nm)
# Type: biochemical
# Details: enzyme extracted from rabbit stomach mucosa; pH 6.5; 500 μM ATP; 37° C.; read-out: IC50(μM) inhibition rate (IC50) of H+/K+ ATPase enzyme activity
# Excerpt: Test Example: Determination of Compounds' Inhibition of H+/K+ ATPase Enzyme Activity
# The following experiment is used to determine the inhibitory effect of the compound of the present invention on the H+/K+ ATPase enzyme activity.
# • Plate reader: SpectraMax M5(MD) • Malachite Green (Sigma Aldrich, 213020-25G) • Ammonium molybdate (Sigma Aldrich, 277908-20G) • ATP (Sigma Aldrich, A1852-1VL). 2. Buffer Preparation • Enzyme working solution: titrating the enzyme, diluting the enzyme with buffer solution 1, and taking 5 μl of the diluted solution into 50 μl reaction system • ATP solution: 100 mM ATP was diluted to 5 mM with no K+ buffer, and 5 μl of the diluted solution was added to the 50 μl reaction system, that is, the final concentration of ATP was 500 μM MLG color development liquid: 0.12% MLG, 7.5% ammonium molybdate, 11% Tween-20 was mixed as 100:25:2, and adding 15 μl of the mixture into each well during detection. • Buffer 1: 50 mM Tris-HCl pH 6.5, 5 mM magnesium chloride (magnesium chloride), 10 μM valinomycin (valinomycin) • Buffer 2: 50 mM Tris-HCl pH 6.5, 5 mM magnesium chloride (magnesium chloride), 10 μM valinomycin (valinomycin), 20 mM KCl • Homogenization buffer: 10 mmol/L Tris-HCl, pH 6.8, 0.25 M sucrose (sucrose), 1 mmol/LEDTA 7.5% Ficoll layering solution: homogenization buffer+7.5% (W/W) (Ficoll 400). 3. Experimental Steps […] Enzyme Extraction • (1) The stomach tissue of the rabbit was separated, and the blood was washed with tap water, food residue. • (2) The fundus portion was thoroughly washed with pre-cooled NaCl solution to remove surface mucus. • (3) The stripped mucosa was filled into a sample bag or a 50 ml centrifuge tube, and quickly freezing in a liquid nitrogen tank. • (4) The tissue was removed, minced with surgical scissors, and a pre-cooled homogenization buffer (4 ml/g tissue) was added and homogenized in a tissue homogenizer for 2 to 10 minutes. • (5) After homogenization, if there were larger tissue particles, they could be removed by centrifugation (600 g, 10 min), and then the supernatant was transferred to a clean centrifuge tube. After centrifugation at 20000 g for 30 minutes, then the supernatant was transferred to a clean centrifuge tube at 100000 g for 90 minutes, and the precipitate was collected. • (6) Resuspending the precipitate with homogenization buffer, blowing uniformly, adding 7.5% Ficoll layering solution at equal ratio, centrifuging at 100000 g for 90 minutes, and collecting the precipitate. • (7) Resuspending the precipitate with homogenization buffer, blowing uniformly, and the protein concentration was measured by Bradford. Freezing in tubes at −80° C. for later use. 3.2. H+/K+ ATPase Activity Experiment • (1) Adding 35 μl of reaction buffer to each experimental well, and then adding […]. • (2) Adding 5 μl buffer 1 containing 10% DMSO to the whole enzyme and buffer well. • (3) Adding 5 μl of 10× compound working solution to the compound well and mixing well. • (4) Adding 5 μl of buffer 1 to the buffer well. • (5) Adding 5 μl of 10× enzyme working solution to the remaining wells, mixing and incubating at 37° C. for 30 minutes. • (6) Adding 5 μl of 10×ATP working solution to all experimental wells, mixing and incubating at 37° C. for 20 min. • (7) Adding 15 μl MLG chromogenic solution to all experimental wells, and uniformly mixing and incubating at room temperature for 5-30 min. • (8) The reading number of 620 nm was detected by an M5 instrument. 4. Data Analysis
# The inhibition rate is calculated with the following formula: Inhibition rate (IC50)=[OD (sample well)−OD (full enzyme well containing potassium chloride)]/[(OD (full enzyme well containing potassium chloride)−(OD (full enzyme well without potassium chloride)]×100% 5. Experimental Results
# T1 sequence (P27112 whole entry): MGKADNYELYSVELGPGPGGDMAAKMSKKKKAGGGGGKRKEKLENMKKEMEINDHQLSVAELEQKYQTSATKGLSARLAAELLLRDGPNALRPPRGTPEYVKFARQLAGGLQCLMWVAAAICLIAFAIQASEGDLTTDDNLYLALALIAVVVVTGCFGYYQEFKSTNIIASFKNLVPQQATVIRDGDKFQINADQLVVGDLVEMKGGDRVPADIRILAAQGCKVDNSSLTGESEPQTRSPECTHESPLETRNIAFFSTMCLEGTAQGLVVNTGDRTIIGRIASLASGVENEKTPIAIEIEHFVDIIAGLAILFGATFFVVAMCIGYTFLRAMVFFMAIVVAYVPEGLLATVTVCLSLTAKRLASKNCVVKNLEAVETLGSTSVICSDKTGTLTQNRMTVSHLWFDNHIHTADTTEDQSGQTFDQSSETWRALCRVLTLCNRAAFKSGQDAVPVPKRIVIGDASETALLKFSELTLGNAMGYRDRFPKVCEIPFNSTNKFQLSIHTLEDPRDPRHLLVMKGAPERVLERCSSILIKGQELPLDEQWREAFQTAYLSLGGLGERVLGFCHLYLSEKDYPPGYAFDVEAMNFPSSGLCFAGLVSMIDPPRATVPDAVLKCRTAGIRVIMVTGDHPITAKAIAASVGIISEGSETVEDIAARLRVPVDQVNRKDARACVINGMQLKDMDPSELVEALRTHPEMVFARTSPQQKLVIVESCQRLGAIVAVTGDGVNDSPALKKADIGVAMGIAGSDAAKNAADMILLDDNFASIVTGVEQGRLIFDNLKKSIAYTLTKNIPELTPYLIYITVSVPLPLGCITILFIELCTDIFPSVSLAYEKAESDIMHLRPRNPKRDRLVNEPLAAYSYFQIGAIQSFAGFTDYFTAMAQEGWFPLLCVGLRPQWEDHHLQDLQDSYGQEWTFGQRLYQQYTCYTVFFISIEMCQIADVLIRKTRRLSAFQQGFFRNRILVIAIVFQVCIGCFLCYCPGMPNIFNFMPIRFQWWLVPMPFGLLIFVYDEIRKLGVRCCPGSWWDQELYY
# T1 sequence (P18597 whole entry partner): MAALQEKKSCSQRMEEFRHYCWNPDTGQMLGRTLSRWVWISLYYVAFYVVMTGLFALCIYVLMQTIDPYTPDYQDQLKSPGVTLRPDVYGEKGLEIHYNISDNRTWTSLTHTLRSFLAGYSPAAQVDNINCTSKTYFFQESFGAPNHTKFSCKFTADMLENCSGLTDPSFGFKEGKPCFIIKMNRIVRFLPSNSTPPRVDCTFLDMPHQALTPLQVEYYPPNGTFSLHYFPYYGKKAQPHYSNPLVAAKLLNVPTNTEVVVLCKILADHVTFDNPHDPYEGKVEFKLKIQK
row,IC50 [µM],SMILES
1,0.208,"CN1Cc2nn(Cc3cccc(C4=CCNCC4)c3)c(-c3ccccc3F)c2C1 [Example 9, 3-(2-fluorophenyl)-5-methyl-2-(3-(1,2,3,6-tetrahydropyridin-4-yl)benzyl)-2,4,5,6-tetrahydropyrrolo[3,4-C]pyrazole]"
2,0.121,"CN1Cc2nn(Cc3cc(Cl)cc(C4=CCOCC4)c3)c(-c3ccccc3F)c2C1 [Example 6, 2-(3-chloro-5-(3,6-dihydro-2H-pyran-4-yl)benzyl)-3-(2-fluorophenyl)-5-methyl-2,4,5,6-tetrahydropyrrolo[3,4-c]pyrazole]"
3,0.114,"CN1Cc2nn(Cc3ccc(F)c(C4=CCOCC4)c3)c(-c3ccccc3F)c2C1 [Example 7, 2-(3-(3,6-dihydro-2H-pyran-4-yl)-4-fluorobenzyl)-3-(2-fluorophenyl)-5-methyl-2,4,5,6-tetrahydropyrrolo[3,4-c]pyrazole]"
4,0.0883,"CN1Cc2nn(Cc3cccc(C4=CCOCC4)c3)c(-c3ccccc3F)c2C1 [Example 5, 2-(3-(3,6-dihydro-2H-pyran-4-yl)benzyl)-3-(2-fluorophenyl)-5-methyl-2,4,5,6-Tetrahy dropyrrolo[3,4-C]pyrazole]"
5,0.233,"CN1Cc2nn(Cc3ccc(O)c(C4=CCOCC4)c3)c(-c3ccccc3F)c2C1 [Example 1, 2-(3,6-dihydro-2H-pyran-4-yl)-4-((3-(2-fluorophenyl)-5-methyl-5,6-dihydropyrrolo[3,4-c]pyrazole-2(4H)-yl)methyl)phenol]"
6,0.113,"CN1Cc2nn(Cc3cc(O)cc(C4=CCCOC4)c3)c(-c3ccccc3F)c2C1 [Example 4, 3-(5,6-dihydro-2H-pyran-3-yl)-5-((3-(2-fluorophenyl)-5-methyl-5,6-dihydropyrrolo[3,4-c]pyrazole-2(4H)-yl)methyl)phenol]"
7,0.197,"CN1Cc2nn(Cc3cccc(C4=CCCOC4)c3)c(-c3ccccc3F)c2C1 [Example 3, 2-(3-(5,6-dihydro-2H-pyran-3-yl)benzyl)-3-(2-fluorophenyl)-5-methyl-2,4,5,6-tetrahydropyrrolo[3,4-C]pyrazole]"
8,0.0559,"CN1Cc2nn(Cc3ccc(O)c(C4=CCCOC4)c3)c(-c3ccccc3F)c2C1 [Example 2, 2-(5,6-dihydro-2H-pyran-3-yl)-4-((3-(2-fluorophenyl)-5-methyl-5,6-dihydropyrrolo[3,4-c]pyrazole-2(4H)-yl)methyl)phenol]"
9,0.769,"CN1Cc2nn(Cc3cccc(C4=CCOCC4)c3)c(-c3cccnc3F)c2C1 [Example 10, 2-(3-(3,6-dihydro-2H-pyran-4-yl)benzyl)-3-(2-fluoropyridin-3-yl)-5-methyl-2,4,5,6-tetrahydropyrrolo[3,4-c]pyrazole]"
10,0.0811,"CN1Cc2nn(Cc3cc(O)cc(C4=CCOCC4)c3)c(-c3ccccc3F)c2C1 [Example 8, 3-(3,6-dihydro-2H-pyran-4-yl)-5-((3-(2-fluorophenyl)-5-methyl-5,6-dihydropyrrolo[3,4-c]pyrazole-2(4H)-yl)methyl)phenol]"
